Among the test systems are MOLT-4 leukemia; SW-620 colon; CCRF-CEM leukemia; HCT-15 colon; TK-10 renal; UO-31 renal; SNB-75 CNS; EKVX NSCLC; SF-268 CNS; PC-3 prostate.
What all share (test): NCI anticancer screen, dose series, 48 h

In PubChem BioAssay (NCI) one finds TGI and GI50 data, which are given here for ten compounds.

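Test compounds were applied to cells in 96-well plates for 48 hours at 5 doses. The concentration for 50% growth inhibition is given as GI50. TGI: total growth inhibition.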

On to `N#CC12CC3(CCC1CCC1(C2)OCCO1)OCCO3` (stereo unspecified), for which the TGI in the assay on MOLT-4 leukemia, in the assay on SW-620 colon, in the assay on CCRF-CEM leukemia, in the assay on HCT-15 colon, in the assay on TK-10 renal and in the assay on UO-31 renal was over 100 µM each time. Moreover, the TGI in the assay on SNB-75 CNS, in the assay with EKVX NSCLC and with SF-268 CNS was over 100 µM in each case.

For the compound `O=[N+]([O-])c1ccc2nc(=S)[nH]n2c1`, the TGI in the assay on MOLT-4 leukemia, with SW-620 colon, with CCRF-CEM leukemia, in the assay on HCT-15 colon, in the assay on TK-10 renal and with UO-31 renal was over 100 µM in each case. Besides, the TGI in the assay with SNB-75 CNS, in the assay with EKVX NSCLC and in the assay on SF-268 CNS was over 100 µM each time.

Take `CC(=O)Nc1cc(CN2CCCCC2)c(O)c2ncccc12`: the TGI was 43.1 µM with MOLT-4 leukemia; over 100 µM with SW-620 colon; 81 µM with PC-3 prostate; over 100 µM in the assay with CCRF-CEM leukemia; over 100 µM with HCT-15 colon; over 100 µM in the assay on TK-10 renal. In addition, the TGI in the assay on UO-31 renal is 46.8 µM; with EKVX NSCLC, over 100 µM; in the assay with SF-268 CNS, 79.2 µM.

Take `COc1ccc2c(c1)O/C(=C\c1ccc([N+](=O)[O-])s1)C2=O`: the GI50 was 2.26 µM in the assay with MOLT-4 leukemia; 1.81 µM in the assay with PC-3 prostate; 0.478 µM with CCRF-CEM leukemia; 0.259 µM in the assay on HCT-15 colon; over 22.5 µM in the assay on TK-10 renal; 2.36 µM in the assay on SNB-75 CNS. In addition, the GI50 in the assay on SF-268 CNS is 1.8 µM. For the same compound, the TGI in the assay with MOLT-4 leukemia was over 100 µM; in the assay on PC-3 prostate, over 100 µM; in the assay with CCRF-CEM leukemia, over 100 µM; with HCT-15 colon it was 0.825 µM; in the assay with TK-10 renal, over 100 µM; in the assay with SNB-75 CNS it was 39.2 µM. For the same compound, in the assay with SF-268 CNS, the TGI is over 19.8 µM.

`COc1ccc(-c2cc(=O)c3cccnc3[nH]2)cc1`: the TGI was over 100 µM in the assay with MOLT-4 leukemia; over 100 µM in the assay with SW-620 colon; over 100 µM in the assay with PC-3 prostate; 85.6 µM in the assay with CCRF-CEM leukemia; over 100 µM with HCT-15 colon; over 100 µM in the assay with TK-10 renal. Further, the TGI in the assay on UO-31 renal, in the assay with EKVX NSCLC and in the assay on SF-268 CNS was over 100 µM each time. For the same compound, the GI50 in the assay on PC-3 prostate was 31.7 µM.

`COc1ccc(CNC(=O)c2c(C)n([O-])c3cc(F)c(F)cc3[n+]2=O)cc1`: the GI50 was 4.61 µM in the assay with MOLT-4 leukemia; 3.83 µM in the assay with SW-620 colon; 11.7 µM with PC-3 prostate; 3.2 µM in the assay on CCRF-CEM leukemia; 1.77 µM in the assay with HCT-15 colon; 14.1 µM in the assay with TK-10 renal. The GI50 with UO-31 renal is 12.8 µM; in the assay on SNB-75 CNS, 0.461 µM; in the assay on SF-268 CNS it was 4.4 µM. Also, the TGI in the assay on MOLT-4 leukemia was found to be 21.2 µM; with SW-620 colon, 13.1 µM; in the assay on PC-3 prostate, 23.9 µM; in the assay on CCRF-CEM leukemia, 12.4 µM; in the assay with HCT-15 colon it was 3.43 µM; in the assay with TK-10 renal, 27.1 µM. Also, the results for the TGI with UO-31 renal, in the assay on SNB-75 CNS and with SF-268 CNS were 26.6 µM, 5.58 µM and 15.7 µM, respectively.

As to `N#CC(CC(=O)O)=C(c1ccccc1)c1ccccc1`, the TGI with SW-620 colon, in the assay with PC-3 prostate, in the assay on HCT-15 colon, with TK-10 renal, in the assay with UO-31 renal and in the assay on SNB-75 CNS was over 100 µM each time. The TGI with EKVX NSCLC and in the assay on SF-268 CNS was over 100 µM each time.

For the compound `Nc1cc(N)c2nc(-c3ccccc3)c(Oc3ccc(Cl)c(Cl)c3)nc2c1`, the GI50 in the assay with MOLT-4 leukemia was 6.28 µM; in the assay with SW-620 colon, 9.69 µM; with PC-3 prostate, 15.5 µM; in the assay on CCRF-CEM leukemia, 2.98 µM; in the assay with HCT-15 colon, 20 µM; with TK-10 renal it was 17.6 µM. The results for the GI50 in the assay with UO-31 renal, with EKVX NSCLC and in the assay on SF-268 CNS were 13.3 µM, 2.16 µM and 17.1 µM, respectively. Also, the TGI in the assay with MOLT-4 leukemia is over 100 µM; in the assay with SW-620 colon, 30.1 µM; in the assay on PC-3 prostate it was over 100 µM; in the assay with CCRF-CEM leukemia, over 100 µM; in the assay on HCT-15 colon, over 100 µM; in the assay with TK-10 renal, 38 µM. Further, the TGI with UO-31 renal came to 60.7 µM; in the assay on EKVX NSCLC, 8.35 µM; in the assay with SF-268 CNS, 52.5 µM.

In the case of `COC(=O)C1=C(O)C(C(=O)OC)[C@@]2(O)[C@@H](C(=O)OC)C(c3ccccc3Cl)C[C@@H]1[C@@H]2C(=O)OC` (stereo partly specified), the GI50 in the assay with MOLT-4 leukemia is 3.31 µM; in the assay with SW-620 colon it was 5.46 µM; in the assay with PC-3 prostate it was 5.88 µM; in the assay on CCRF-CEM leukemia, 1.64 µM; in the assay with HCT-15 colon, 4.7 µM; in the assay on TK-10 renal, 10.3 µM. In addition, the GI50 in the assay on UO-31 renal is 6.14 µM; with EKVX NSCLC, 19.4 µM; with SF-268 CNS, 14.5 µM. Besides, the TGI in the assay with MOLT-4 leukemia was 20.7 µM; with SW-620 colon it was 21.9 µM; in the assay with PC-3 prostate it was 36.5 µM; in the assay on CCRF-CEM leukemia it was 5.12 µM; in the assay on HCT-15 colon, 18 µM; in the assay with TK-10 renal, 25.4 µM. Further, the results for the TGI in the assay with UO-31 renal, with EKVX NSCLC and with SF-268 CNS were 19.8 µM, 38.3 µM and 65.3 µM, respectively.

On to `NC(N)=N/N=C/c1ccc(Br)cc1`, for which the GI50 was 3.98 µM with MOLT-4 leukemia; 3.8 µM in the assay on SW-620 colon; 4.57 µM with PC-3 prostate; 12.6 µM in the assay with CCRF-CEM leukemia; 3.89 µM with HCT-15 colon; 7.44 µM in the assay on TK-10 renal. The GI50 in the assay on UO-31 renal is 5.72 µM; with SNB-75 CNS, 1.6 µM; in the assay with SF-268 CNS it was 12.4 µM. Besides, the TGI in the assay with MOLT-4 leukemia is over 100 µM; in the assay on SW-620 colon it was 15.9 µM; in the assay with PC-3 prostate, 24 µM; in the assay on CCRF-CEM leukemia, over 100 µM; in the assay on HCT-15 colon it was 19 µM; in the assay with TK-10 renal, 21.3 µM. Moreover, the TGI came out at 19.7 µM in the assay with UO-31 renal, 5.76 µM in the assay on SNB-75 CNS and 38.2 µM in the assay with SF-268 CNS.
